According to patent US8614254B2, “Methods and compositions for treating thalamocortical dysrhythmia” (New York University, priority 2007, dated 2013):

Columns and labels:
[1] = tested on: high voltage activated calcium currents; assay: Whole-cell voltage-clamp patch recording, slow component when low and high voltage activated calcium currents are open; assay type: cell-based, rodents (Long-Evans rats, Harley guinea pigs); settings: 10 μM; −10 mV, both low and high voltage activated calcium currents open; FIG. 1B
[2] = tested on: low threshold activated Cav3 calcium currents (Cav3.1); assay: Whole-cell voltage-clamp patch recording of low threshold activated calcium currents in ventrobasal thalamic neurons of brain slices; assay type: cell-based, rodents (Long-Evans rats, Harley guinea pigs); settings: for Cav3 peak currents (I-V curve): FIG. 2B
EEG frequency profile = assay: EEG recording with Fast Fourier transform frequency analysis in wild type and alpha-1A knockout mice; assay type: in vivo, mouse
Protocol: Alpha1A knockout mice, which have an enhanced Cav3 calcium channel activity, develop progressive neurological symptoms resembling Thalamo-cortical Dysrhythmia characterized specifically by ataxia and dystonia, before dying, around four weeks after birth (Jun et al. (1999) Proc. Natl. Acad. Sci. USA. 96(26):15245-50).
When a Fast Fourier transform analysis is performed in two segments of 1 second each (FIG. 7A, segments a and b) from the same wild type trace, a wide range of frequencies is observed. Importantly, the presence of high frequencies in the range of gamma band is observed (FIG. 7A, red arrows). In contrast, an alpha-1A knockout mouse presents a totally different EEG recoding.
The administration of 1-octanol (Sinton et al., (1989) Pflügers Archiv 414: 31-36) in wild types versus knockout mice allows the quantification of the effects of such a drug in the high and low frequencies in the EEG. Since knockout mice only present low frequencies, a dose-response curve of 1-octanol can be easily prepared. Also, an augmentation in the ratio of high/low frequencies is expected for the wild types treated with 1-octanol.
Analysis of the frequency components plotted in blue bars show a decrease in the low frequencies (0-15 Hz) and an increase in hi frequencies (30-45 Hz) consistent with the fact that Cav3 channels are responsible for low frequencies and their block produces an increase in high frequency.

[3] = tested on: thalamic neurons (low threshold spikes, low frequency oscillations); assay type: cell-based
[4] = tested on: thalamic neurons (high-frequency 40 Hz subthreshold oscillation); assay type: cell-based, mouse
[5] = tested on: thalamic neurons (low threshold spike); assay type: cell-based, mouse
[6] = wild-type mice, i.p., 0.2 mg/kg, FIG. 7D
[7] = 50 μM, wild-type mouse, TTX 2 μM

CCCCCCCCO [1-octanol]
slow component that remains open at the end of the depolarized pulse [1]: leaving unchanged | block of peak fast activated Cav3.1 calcium current (ICa) amplitude ([2]; 10 μM, holding level −30 mV where only low voltage activated calcium currents can be open, FIG. 1A): about 30% | specificity of block of low threshold activated Cav3-type currents ([2]; ventrobasal thalamic neurons, conclusion from FIG. 1A and 1B): specifically block | ratio of high/low frequencies in the EEG (EEG frequency profile; wild types treated, expected): augmentation | peak of low threshold spikes activated using ramps of current ([3]; 50 μM, FIG. 4A and 4B): further decreases | membrane resistance ([3]; after blocking Cav3 calcium currents, same amplitude current pulse): increments | effect on the low threshold spikes ([3]; current clamp, FIG. 4A and 4B): concentration-dependent

CCCCCCC(C)O (centres unmarked) [2-octanol]
Cav3 peak currents (I-V curve) ([2]; 10 μM): partially reduced | Cav3 peak currents (I-V curve) ([2]; 100 μM): almost abolished | low threshold activated Cav3 calcium currents ([2]; 100 μM, voltage clamp, high Cs/QX314 intracellular solution): completely abolished | Cav3 calcium currents peak with increasing concentrations ([2]; holding −70 mV, steps to −60, −30, −20 and −10 mV, FIG. 2A): progressive reduction | thalamic low frequency oscillatory activity (low threshold spikes firing at 2 Hz) ([3]; 10 μM, five min. of perfusion, FIG. 3A): complete abolishment | reversibility of the abolishment of oscillatory activity ([3]; after 40 min. of washout): partially reversible | low threshold spike ([3]; after TTX removal from the external solution, FIG. 5A and 5B): block | frequency of action potentials of the thalamic neurons ([3]; after TTX removal, after block of low threshold spike, increment in input resistance): notably increased

CCCCCCCCO [octanol]
low threshold activated Cav3 calcium currents of neurons of the thalamic Ventrobasal nucleus ([2]; clinical concentrations at micromolar level, summary of the examples): significantly reversibly block | EEG hi frequencies (30-45 Hz) (EEG frequency profile; [6]): increase | EEG low frequencies (0-15 Hz) (EEG frequency profile; [6]): decrease | 40 Hz oscillations on depolarizing square pulses [4, 7]: are observed | high-frequency 40 Hz oscillations ([4]; alpha1A-KO mouse, before or after application): no high-frequency 40 Hz oscillations are present | high frequency oscillations in the thalamic neurons ([4]; summary of the examples): does not appear to affect | rebound low threshold spike [5, 7]: abolished | low threshold spike ([5]; alpha1A-KO mouse, TTX, FIG. 6B): blocked
